Molecular target: hKCNQ2/3 (Homo sapiens, UniProt O43525+O43526)
Test: Fluorescence assay using a voltage sensitive dye
Format: cell-based
Parameters: expressed in transfected cells; host or cells: CHO-K1
Description: Biological Data Fluorescence Assay Using a Voltage Sensitive Dye
Human CHO-K1 cells expressing KCNQ2/3 channels are cultivated adherently at 37° C., 5% CO2 and 95% humidity in cell culture bottles (e.g. 80 cm^2 TC flasks, Nunc) with DMEM-high glucose (Sigma Aldrich, D7777) including 10% FCS (PAN Biotech, e.g. 3302-P270521) or alternatively with MEM Alpha Medium (1×, liquid, Invitrogen, #22571), 10% fetal calf serum (FCS) (Invitrogen, #10270-106, heat-inactivated) and the necessary selection antibiotics.
Before being distributed for the measurements, the cells are washed with a 1×DPBS buffer without Ca^2+/Mg^2+ (e.g. Invitrogen, #14190-094) and detached from the bottom of the culture vessel by means of Accutase (PAA Laboratories, #L11-007) (incubation with Accutase for 15 min at 37° C.). The cell count then present is determined using a CASY™ cell counter (TCC model, Schärfe System) in order subsequently to apply, according to density optimization for the individual cell line, 20,000-30,000 cells/well/100 μl of the described nutrient medium to 96-well measuring plates of the Corning™ CellBIND™ type (Flat Clear Bottom Black Polystyrene Microplates, #3340). Incubation is then carried out for one hour at room temperature, without gassing or adjusting the humidity, followed by incubation for 24 hours at 37° C., 5% CO2 and 95% humidity.
The voltage-sensitive fluorescent dye from the Membrane Potential Assay Kit (Red™ Bulk format part R8123 for FLIPR, MDS Analytical Technologies™) is prepared by dissolving the contents of a vessel Membrane Potential Assay Kit Red Component A in 200 ml of extracellular buffer (ES buffer, 120 mM NaCl, 1 mM KCl, 10 mM HEPES, 2 mM CaCl2, 2 mM MgCl2, 10 mM glucose; pH 7.4). After removal of the nutrient medium, the cells are washed with 200 μl of ES buffer, then covered with a layer of 100 μl of the dye solution prepared above and incubated for 45 min at room temperature with the exclusion of light.
The fluorescence measurements are carried out with a BMG Labtech FLUOstar™ or BMG Labtech NOVOstar™ or BMG Labtech POLARstar™ instrument (525 nm excitation, 560 nm emission, Bottom Read mode). After incubation of the dye, 50 μl of the test substances in the desired concentrations, or 50 μl of ES buffer for control purposes, are introduced into separate cavities of the measuring plate and incubated for 30 min at room temperature while being shielded from light. The fluorescence intensity of the dye is then measured for 5 min and the fluorescence value F1 of each well is thus determined at a given, constant time. 15 μL of a 100 mM KCl solution ([…]) are then added to each well. The change in fluorescence is subsequently measured until all the relevant measured values have been obtained (mainly 5-30 min). At a given time after KCl application, a fluorescence value F2 is determined, in this case at the time of the fluorescence peak.
For calculation, the fluorescence intensity F2 is compared with the fluorescence intensity F1, and the agonistic activity of the target compound on the potassium channel is determined therefrom. F2 and F1 are calculated as follows:
[formula] In order to determine whether a substance has an agonistic activity,
[formula] for example, can be compared with
[formula] of control cells.
[formula] is determined by adding to the reaction batch only the buffer solution instead of the substance to be tested, determining the value F1K of the fluorescence intensity, adding the potassium ions as described above and measuring a value F2K of the fluorescence intensity. Then F2K and F1K are calculated as follows:
[formula] A substance has an agonistic activity on the potassium channel when
[formula] is greater than
[formula] Independently of the comparison of
[formula] it is also possible to conclude that a target compound has agonistic activity if an increase in
[formula] is to be observed as the dosage of the target compound increases. […]

Going from `O=C(NCc1cccc(F)c1)c1cccnc1SCCS(=O)(=O)c1ccccc1` [Example 15, N-(3-fluorobenzyl)-2-(2-(phenylsulfonyl)ethylthio)nicotinamide] to `O=C(NCc1cccc(Cl)c1)c1cccnc1SCCS(=O)(=O)c1ccccc1` [Example 25, N-(3-chlorobenzyl)-2-(2-(phenylsulfonyl)ethylthio)nicotinamide], the EC50 falls from 2480 nM to 1280 nM (1.9-fold). The second is the more potent here.

`Cc1ccc(S(=O)(=O)CCSc2ncccc2C(=O)NCc2ccco2)cc1` [Example 39, N-(furan-2-ylmethyl)-2-(2-tosylethylthio)nicotinamide] and `Cc1ccc(S(=O)(=O)CCSc2ncccc2C(=O)NCc2cccs2)cc1` [Example 36, N-(thiophen-2-ylmethyl)-2-(2-tosylethylthio)nicotinamide] are within 1.5-fold of each other in EC50: 6090 nM for the first, 4110 nM for the second.

`Cc1ccc(CNC(=O)c2cccnc2SCCS(=O)(=O)c2ccccc2)cc1` [Example 5, N-(4-methylbenzyl)-2-(2-(phenylsulfonyl)ethylthio)-nicotinamide] and `O=C(NCc1ccc(F)cc1)c1cccnc1SCCS(=O)(=O)c1ccccc1` [Example 20, N-(4-fluorobenzyl)-2-(2-(phenylsulfonyl)ethylthio)nicotinamide] are within 1.5-fold of each other in EC50: 1860 nM for the first, 1280 nM for the second.

`O=C(NCc1ccc(Cl)c(Cl)c1)c1cccnc1SCCS(=O)(=O)c1ccccc1` [Example 19, N-(3,4-dichlorobenzyl)-2-(2-(phenylsulfonyl)ethylthio)nicotinamide] and `O=C(NCc1ccc(F)c(F)c1)c1cccnc1SCCS(=O)(=O)c1ccccc1` [Example 12, N-(3,4-difluorobenzyl)-2-(2-(phenylsulfonyl)ethylthio)nicotinamide] are within 1.5-fold of each other in EC50: 1270 nM for the first, 1800 nM for the second.

Compared with `O=C(NCc1cccs1)c1cccnc1SCCS(=O)(=O)c1ccc(F)cc1` [Example 100, 2-[2-(4-fluorophenyl)sulfonylethylthio]-N-(2-thienylmethyl)-nicotinamide], `O=C(NCc1cccs1)c1cccnc1SCCS(=O)(=O)c1ccc(Cl)cc1` [Example 99, 2-[2-(4-chlorophenyl)sulfonylethylthio]-N-(2-thienylmethyl)-nicotinamide] is 2.1-fold lower in EC50: 503 nM for the first, 234 nM for the second.

First: Cc1ccc(S(=O)(=O)CCSc2ncccc2C(=O)NCc2ccc(F)cc2)cc1 [Example 49, N-(4-fluorobenzyl)-2-(2-tosylethylthio)nicotinamide]
Second: Cc1ccc(S(=O)(=O)CCSc2ncccc2C(=O)NCc2ccc(F)c(F)c2)cc1 [Example 45, N-(3,4-difluorobenzyl)-2-(2-tosylethylthio)nicotinamide]
The EC50 of the first is 3.6-fold higher: 7600 nM for the first, 2140 nM for the second.

First: O=C(NCc1cc(F)cc(F)c1)c1cccnc1SCCS(=O)(=O)c1ccccc1 [Example 8, N-(3,5-difluorobenzyl)-2-(2-(phenylsulfonyl)ethylthio)nicotinamide]
Second: Cc1ccc(S(=O)(=O)CCSc2ncccc2C(=O)NCc2cc(F)cc(F)c2)cc1 [Example 41, N-(3,5-difluorobenzyl)-2-(2-tosylethylthio)nicotinamide]
The EC50 of the first is 1.9-fold lower: 1280 nM for the first, 2390 nM for the second.

Compared with `CC(NC(=O)c1cccnc1SCCS(=O)(=O)c1ccccc1)c1cccc(C(F)(F)F)c1` (centres unmarked) [Example 57, 2-(2-(phenylsulfonyl)ethylthio)-N-(1-(3-(trifluoromethyl)phenyl)ethyl)-nicotinamide], `Cc1ccc(S(=O)(=O)CCSc2ncccc2C(=O)NCc2cccc(C(F)(F)F)c2)cc1` [Example 52, 2-(2-tosylethylthio)-N-(3-(trifluoromethyl)benzyl)nicotinamide] is 3.1-fold lower in EC50: 5700 nM for the first, 1820 nM for the second.

Going from `CC(C)(C)CCNC(=O)c1cccnc1SCCS(=O)(=O)c1ccccc1` [Example 107, 2-[2-(benzenesulfonyl)ethylthio]-N-(3,3-dimethylbutyl)-nicotinamide] to `CC(C)(C)CNC(=O)c1cccnc1SCCS(=O)(=O)c1ccccc1` [Example 60, N-(neopentyl)-2-(2-(phenylsulfonyl)ethylthio)nicotinamide], the EC50 rises from 1420 nM to 9590 nM (6.8-fold).

Compared with `CN(Cc1ccccc1)C(=O)c1cccnc1SCCS(=O)(=O)c1ccccc1` [Example 55, N-benzyl-N-methyl-2-(2-(phenylsulfonyl)ethylthio)nicotinamide], `CN(Cc1cccc(Br)c1)C(=O)c1cccnc1SCCS(=O)(=O)c1ccccc1` [Example 13, N-(3-bromobenzyl)-N-methyl-2-(2-(phenylsulfonyl)ethylthio)nicotinamide] is 12-fold lower in EC50: 16500 nM for the first, 1400 nM for the second.

Going from `O=C(NCc1cccs1)c1cccnc1SCCSc1ccccc1` [Example 109, 2-[2-(phenylthio)ethylthio]-N-(2-thienylmethyl)-nicotinamide] to `Cc1cccc(SCCSc2ncccc2C(=O)NCc2cccs2)c1` [Example 105, 2-[2-(m-tolylthio)ethylthio]-N-(2-thienylmethyl)-nicotinamide], the EC50 rises from 75 nM to 168 nM (2.2-fold). The first is the more potent here.

Compared with `O=C(NCc1ccccc1F)c1cccnc1SCCS(=O)(=O)c1ccccc1` [Example 11, N-(2-fluorobenzyl)-2-(2-(phenylsulfonyl)ethylthio)nicotinamide], `O=C(NCc1ccccc1)c1cccnc1SCCS(=O)(=O)c1ccccc1` [Example 54, N-benzyl-2-(2-(phenylsulfonyl)ethylthio)nicotinamide] is 2-fold higher in EC50: 1170 nM for the first, 2340 nM for the second.

`O=C(NCc1cccs1)c1cccnc1SCCS(=O)(=O)c1cccc(F)c1` [Example 106, 2-[2-(3-fluorophenyl)sulfonylethylthio]-N-(2-thienylmethyl)-nicotinamide] and `O=C(NCc1cccs1)c1cccnc1SCCS(=O)(=O)c1ccc(C(F)(F)F)cc1` [Example 102, N-(2-thienylmethyl)-2-[2-[4-(trifluoromethyl)phenyl]sulfonylethylthio]-nicotinamide] are within 1.5-fold of each other in EC50: 187 nM for the first, 197 nM for the second.

First: COc1ccc(CNC(=O)c2cccnc2SCCS(=O)(=O)c2ccccc2)cc1 [Example 17, N-(4-methoxybenzyl)-2-(2-(phenylsulfonyl)ethylthio)nicotinamide]
Second: O=C(NCc1ccc(SC(F)(F)F)cc1)c1cccnc1SCCS(=O)(=O)c1ccccc1 [Example 64, 2-(2-(phenylsulfonyl)ethylthio)-N-(4-(trifluoromethylthio)benzyl)-nicotinamide]
The EC50 of the first is 7.4-fold higher: 6520 nM for the first, 880 nM for the second. The second is the more potent here.

Going from `O=C(NCc1ccco1)c1cccnc1SCCS(=O)(=O)c1ccccc1` [Example 62, N-(furan-2-ylmethyl)-2-(2-(phenylsulfonyl)ethylthio)nicotinamide] to `Cc1ccc(S(=O)(=O)CCSc2ncccc2C(=O)NCc2ccccc2F)cc1` [Example 43, N-(2-fluorobenzyl)-2-(2-tosylethylthio)nicotinamide], the EC50 falls from 4390 nM to 1970 nM (2.2-fold).

First: Cc1ccc(S(=O)(=O)CCSc2ncccc2C(=O)NCc2cccc(Cl)c2)cc1 [Example 51, N-(3-chlorobenzyl)-2-(2-tosylethylthio)nicotinamide]
Second: Cc1ccc(S(=O)(=O)CCSc2ncccc2C(=O)NCc2cccc(C)c2)cc1 [Example 44, N-(3-methylbenzyl)-2-(2-tosylethylthio)nicotinamide]
The EC50 of the first is 1.8-fold higher: 4120 nM for the first, 2230 nM for the second.
